Assay results from patent publication US20160303116A1, “TREATMENT OF MULTIPLE SCLEROSIS WITH A 1,2,4-TRIAZOLO [1,5A] PYRIDINE DERIVATIVE” (CEPHALON, INC., priority 2013, published 2016).

Assays:
MOG-induced EAE [1] = assay: Histological scoring of spinal cords from MOG-induced EAE mice (inflammation, demyelination); type: in vivo, C57Bl/6 mice; conditions: 30 and 55 mg/kg twice a day and 110 mg/kg once a day; range over groups
Text: At the end of the observation period (day 30) the mice of the treatment groups were necropsied. The mice were deeply anesthetized with isoflourane and air and transcardially perfused, initially with a flushing solution (saline with heparin) until the perfusate was bloodless and then flushed with 4% buffered formalin. The vertebral columns (from the cervical region to the lumbar region) of each of the mice were dissected. The vertebral column was isolated by cutting away as much muscle as possible and sectioned distally at the last rib. The brain and the vertebral column were preserved in 4% buffered formalin.
Two transverse sections from each cervical and lumbar intumescence (cervico-thoracic and lumbo-sacral vertebral segments) were evaluated. […] Histological sections were scored blind. Inflammation was evaluated for both gray and white matter, demyelination was evaluated within white matter only, and axonal injury was evaluated within the white matter. […] The percentage axonal loss was determined by subtracting the number of points crossing axons subtracted by the total number of points of the stereological grid, divided by the total number of points of the stereological grid.
Two transverse sections from each cervical and lumbar intumescence (cervico-thoracic and lumbo-sacral vertebral segments) were evaluated. […]

PLP-induced EAE [2] = assay: Ex vivo blinded pathology scoring in PLP-induced EAE; parameters: species or system SJL/J mice; conditions: 100 mg/kg dose; p<0.05; data not shown
Experimental: Two transverse sections from each cervical and lumbar intumescence (cervico-thoracic and lumbo-sacral vertebral segments) were evaluated. Histological evaluation was performed on 4 μm thick sections stained with hematoxylin-eosin (H&E), Luxol fast blue periodic acid-Schiff (LFB/PAS) and Bielschowsky silver impregnation to assess inflammation, demyelination and axonal pathology. Histological sections were scored blind. Inflammation was evaluated for both gray and white matter, demyelination was evaluated within white matter only, and axonal injury was evaluated within the white matter. Scores from both cervico-thoracic, and lumbosacral sections, respectively, were averaged to obtain the average inflammation score and demyelination scores. The most severe area of demyelination for each section was used to evaluate axonal pathology. […] The percentage axonal loss was determined by subtracting the number of points crossing axons subtracted by the total number of points of the stereological grid, divided by the total number of points of the stereological grid.

[3] = parameters: species or system mice; conditions: mouse, in vivo
Experimental: PTX was injected intraperitoneally on the day of induction and 48 hours later at 100 ng/0.2 ml/mouse. […] All animals were monitored daily for clinical signs from the tenth day post-EAE induction until day 30. Scoring of EAE clinical signs was recorded on observations cards according to the grading system described herein.

MOG-induced EAE [4] = assay: MOG-induced EAE mouse model of MS, clinical signs; type: in vivo, C57Bl/6 mice; conditions: for Percent Inhibition-1: inhibition according to incidence vs vehicle; for Onset (of disease): no EAE counted as 31 days; for Percent Inhibition-3: reduction of GMS vs vehicle; for Percent Inhibition-2: reduction of MMS vs vehicle; for Incidence: sick/total
SCH-induced EAE = SCH-induced EAE mouse model (acute), clinical signs; type: in vivo, (Balb/c×SJL) F1 (CSFL) mice; conditions: for GMS reduction / MMS reduction: vs vehicle
in vivo = assay: in vivo; parameters: species or system male beagle dogs; conditions: dog, po
PLP-induced EAE [5] = assay: PLP-induced EAE mouse model (relapsing-remitting), clinical signs; type: in vivo, SJL/J mice; conditions: for Mortality: dead/total, to day 60; for Incidence: sick/total
JAK2 = JAK2 (Homo sapiens, UniProt O60674); conditions: statement with reference to earlier filings; cited from earlier work
Chain of JAK2 (O60674 whole entry, species assumed): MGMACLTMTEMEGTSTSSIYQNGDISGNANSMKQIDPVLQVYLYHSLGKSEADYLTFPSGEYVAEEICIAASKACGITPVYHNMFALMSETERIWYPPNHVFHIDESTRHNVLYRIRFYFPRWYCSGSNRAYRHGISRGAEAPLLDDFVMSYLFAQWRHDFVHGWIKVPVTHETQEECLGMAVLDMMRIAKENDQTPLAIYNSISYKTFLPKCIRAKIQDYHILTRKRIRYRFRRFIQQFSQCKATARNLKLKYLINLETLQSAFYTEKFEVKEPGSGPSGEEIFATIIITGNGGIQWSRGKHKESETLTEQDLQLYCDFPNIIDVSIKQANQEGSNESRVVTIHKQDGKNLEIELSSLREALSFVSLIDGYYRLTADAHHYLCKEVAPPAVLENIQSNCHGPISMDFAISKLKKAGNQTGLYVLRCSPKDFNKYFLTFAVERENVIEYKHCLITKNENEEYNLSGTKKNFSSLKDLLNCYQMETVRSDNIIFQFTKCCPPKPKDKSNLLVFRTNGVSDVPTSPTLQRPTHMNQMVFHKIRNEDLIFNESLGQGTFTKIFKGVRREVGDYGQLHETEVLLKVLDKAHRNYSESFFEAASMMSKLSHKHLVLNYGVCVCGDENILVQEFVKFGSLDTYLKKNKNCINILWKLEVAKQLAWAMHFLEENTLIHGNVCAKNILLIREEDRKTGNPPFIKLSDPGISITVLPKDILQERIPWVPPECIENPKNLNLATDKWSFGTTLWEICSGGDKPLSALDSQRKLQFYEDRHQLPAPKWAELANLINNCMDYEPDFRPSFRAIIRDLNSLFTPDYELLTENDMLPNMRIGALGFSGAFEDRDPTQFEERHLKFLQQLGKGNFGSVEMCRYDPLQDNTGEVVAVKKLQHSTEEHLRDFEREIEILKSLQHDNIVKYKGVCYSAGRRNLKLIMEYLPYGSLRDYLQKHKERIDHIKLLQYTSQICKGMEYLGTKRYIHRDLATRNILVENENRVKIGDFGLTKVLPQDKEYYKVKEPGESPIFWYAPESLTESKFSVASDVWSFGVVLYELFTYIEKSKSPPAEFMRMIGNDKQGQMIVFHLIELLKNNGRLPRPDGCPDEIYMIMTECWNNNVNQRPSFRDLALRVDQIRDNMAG

[6] = 110 mg/kg orally once a day, vs vehicle
[7] = 110 mg/kg orally twice a day (so in the source)

CN1CCN(c2cccc(Nc3nc4c(-c5ccc(S(C)(=O)=O)cc5)cccn4n3)c2)CC1 [Compound A, [8-(4-methanesulfonyl-phenyl)-[1,2,4]triazolo[1,5-a]pyridin-2-yl]-[3-(4-methyl-piperazin-1-yl)-phenyl]-amine]
reduction of demyelination over vehicle (LFB/PAS) (MOG-induced EAE [1]): 17.3%-23.9%
reduction of spinal inflammation over vehicle (H&E) (MOG-induced EAE [1]): 41.6%-57.5%
reduction of inflammation (H&E staining) (PLP-induced EAE [2]): significance in the reduction of inflammation
exposures associated with efficacy [3]: 2000 to 4000 ng/mL
Duration (of disease) (MOG-induced EAE [4]; 30 mg/kg orally twice a day): 3.7 ± 6.1 days
GMS (group mean score) (MOG-induced EAE [4]; 30 mg/kg orally twice a day): 0.2±0.4
MMS (mean maximal score) (MOG-induced EAE [4]; 30 mg/kg orally twice a day): 0.7±1.0
Mortality (MOG-induced EAE [4]; 30 mg/kg orally twice a day, dead/total, to day 30): 0/15
Percent Inhibition-1 (MOG-induced EAE [4]; 30 mg/kg orally twice a day): 53.3%
Onset (of disease) (MOG-induced EAE [4]; 30 mg/kg orally twice a day): 23.7 ± 8.2 days
Percent Inhibition-3 (MOG-induced EAE [4]; 30 mg/kg orally twice a day): 90.5%
Percent Inhibition-2 (MOG-induced EAE [4]; 30 mg/kg orally twice a day): 79.4%
Incidence (MOG-induced EAE [4]; 30 mg/kg orally twice a day, to day 30): 7/15
reduction in clinical scores compared to vehicle (FIG. 1) (MOG-induced EAE [4]; 30 mg/kg orally twice daily): 90.5%
Duration (of disease) (MOG-induced EAE [4]; 55 mg/kg orally twice a day): 0.2 ± 0.8 days
GMS (group mean score) (MOG-induced EAE [4]; 55 mg/kg orally twice a day): 0.01±0.04
MMS (mean maximal score) (MOG-induced EAE [4]; 55 mg/kg orally twice a day): 0.1±0.3
Mortality (MOG-induced EAE [4]; 55 mg/kg orally twice a day, dead/total, to day 30): 0/15
Percent Inhibition-1 (MOG-induced EAE [4]; 55 mg/kg orally twice a day): 93.3%
Onset (of disease) (MOG-induced EAE [4]; 55 mg/kg orally twice a day): 30.5 ± 2.1 days
Percent Inhibition-3 (MOG-induced EAE [4]; 55 mg/kg orally twice a day): 99.5%
Percent Inhibition-2 (MOG-induced EAE [4]; 55 mg/kg orally twice a day): 97.1%
Incidence (MOG-induced EAE [4]; 55 mg/kg orally twice a day, to day 30): 1/15
reduction in clinical scores compared to vehicle (FIG. 1) (MOG-induced EAE [4]; 55 mg/kg orally twice daily): 99.5%
GMS reduction (MOG-induced EAE [4]; [6]): 98.5%
MMS reduction (MOG-induced EAE [4]; [6]): 97.1%
reduction in clinical score over that of vehicle (FIG. 1) (MOG-induced EAE [4]; 110 mg/kg orally once daily): 98.5%
Duration (of disease) (MOG-induced EAE [4]; [7]): 0.5 ± 2.1 days
GMS (group mean score) (MOG-induced EAE [4]; [7]): 0.03 ± 0.1
MMS (mean maximal score) (MOG-induced EAE [4]; [7]): 0.1 ± 0.3
Mortality (MOG-induced EAE [4]; 110 mg/kg orally twice a day (so in the source), dead/total, to day 30): 0/15
Percent Inhibition-1 (MOG-induced EAE [4]; [7]): 93.3%
Onset (of disease) (MOG-induced EAE [4]; [7]): 30.5 ± 2.1 days
Percent Inhibition-3 (MOG-induced EAE [4]; [7]): 98.5%
Percent Inhibition-2 (MOG-induced EAE [4]; [7]): 97.1%
Incidence (MOG-induced EAE [4]; 110 mg/kg orally twice a day (so in the source), to day 30): 1/15
Mortality (MOG-induced EAE [4]; any of the MOG-induced EAE treatment groups): not observed
impact on clinical score over vehicle (MOG-induced EAE [4]; once daily dosing at 10 mg/kg, 30 mg/kg and 60 mg/kg (data not shown)): no significant impact over vehicle
Clinical score reduction compared to vehicle (FIG. 3) (SCH-induced EAE; 30 mg/kg orally twice a day): 37.3%
Duration (of disease) (SCH-induced EAE; 30 mg/kg orally twice a day): 8.2 ± 3.3 days
Onset (of disease) (SCH-induced EAE; 30 mg/kg orally twice a day): 16.2 ± 2.0 days
GMS reduction (SCH-induced EAE; 30 mg/kg orally twice a day): 37.3%
MMS reduction (SCH-induced EAE; 30 mg/kg orally twice a day): 17.5%
Clinical score reduction compared to vehicle (FIG. 3) (SCH-induced EAE; 60 mg/kg orally twice a day): 58.3%
Duration (of disease) (SCH-induced EAE; 60 mg/kg orally twice a day): 8.4 ± 4.2 days
Onset (of disease) (SCH-induced EAE; 60 mg/kg orally twice a day): 16.4 ± 3.0 days
GMS reduction (SCH-induced EAE; 60 mg/kg orally twice a day): 58.3%
MMS reduction (SCH-induced EAE; 60 mg/kg orally twice a day): 30%
Mortality (SCH-induced EAE; range over groups treated with Compound A, vehicle 40%): 20-80%
dose relation of Cmax and AUC (in vivo; 30 mg/kg): linear, dose-related increases
Cmax (in vivo; male, beagle, 100 mg/kg): 1.76 µg/mL
GMS (1st and 2nd relapse) (PLP-induced EAE [5]; 30 mg/kg orally twice a day): 1.3 ± 0.9
Mortality (PLP-induced EAE [5]; 30 mg/kg orally twice a day): 0/15
Incidence (PLP-induced EAE [5]; 30 mg/kg orally twice a day): 15/15
reduction in overall mean clinical scores compared to vehicle (FIG. 4) (PLP-induced EAE [5]; 30 mg/kg twice daily): 25.9%
reduction in clinical score over that of vehicle (PLP-induced EAE [5]; 60 mg/kg once daily (data not shown)): 20.1%
GMS (1st and 2nd relapse) (PLP-induced EAE [5]; 60 mg/kg orally once a day): 1.4 ± 0.8
Mortality (PLP-induced EAE [5]; 60 mg/kg orally once a day): 0/15
Incidence (PLP-induced EAE [5]; 60 mg/kg orally once a day): 15/15
GMS (1st and 2nd relapse) (PLP-induced EAE [5]; 60 mg/kg orally twice a day): 0.8 ± 0.4
Mortality (PLP-induced EAE [5]; 60 mg/kg orally twice a day): 0/15
Incidence (PLP-induced EAE [5]; 60 mg/kg orally twice a day): 15/15
reduction in overall mean clinical scores compared to vehicle (FIG. 4) (PLP-induced EAE [5]; 60 mg/kg twice daily): 49.9%
reduction in clinical score over that of vehicle (PLP-induced EAE [5]; 100 mg/kg once daily (data not shown)): 54.9%
GMS (1st and 2nd relapse) (PLP-induced EAE [5]; 100 mg/kg orally once a day): 0.9 ± 0.5
Mortality (PLP-induced EAE [5]; 100 mg/kg orally once a day): 0/15
Incidence (PLP-induced EAE [5]; 100 mg/kg orally once a day): 15/15
GMS (1st and 2nd relapse) (PLP-induced EAE [5]; 100 mg/kg orally twice a day): 0.3 ± 0.3
Mortality (PLP-induced EAE [5]; 100 mg/kg orally twice a day): 0/15
Incidence (PLP-induced EAE [5]; 100 mg/kg orally twice a day): 10/15
activity in the first relapse (PLP-induced EAE [5]; 100 mg/kg twice a day): 97.6%
activity in the second relapse (PLP-induced EAE [5]; 100 mg/kg twice a day): 85.9%
reduction in overall mean clinical scores compared to vehicle (FIG. 4) (PLP-induced EAE [5]; 100 mg/kg twice daily): 86.1%
inhibition of JAK2 (JAK2): potent
